# Source: patent US20090208434A1, “3-(4-hydroxy-3-methoxyphenyl)-1-(4-hydroxyphenyl)-1-propanone and its use in cosmetic and pharmaceutical preparations” (SYMRISE GmbH & Co. KG, priority 2008, published 2009)
# What was measured:
# PGE-2 (prostaglandin E2) = assay: Inhibition of upregulation of inflammatory mediators: PGE-2; details: according to the dose and even at low concentrations
# From the text: (§1) It can therefore be used as an outstanding alternative or as an addition to other already well-known anti-inflammatory compounds (active substances) in cosmetic and pharmaceutical preparations or similar as an anti-inflammatory active substance.
# [1] = Sensitization and irritation test of the compound itself; details: test concentration of 50% by weight
# From the text: The inventive compound of formula 1 with an anti-inflammatory effect can also be used as a component of inventive scent compositions (odorous substance compositions) and for example to give a perfumed finished product an anti-inflammatory effect. Since the proportion of perfume in a cosmetic finished product is often around 1% by weight, a scent containing the inventive compound of formula 1, will preferably include or be comprised approximately 1-50% by weight of the compound of formula 1.
# IL-6 = assay: Inhibition of upregulation of inflammatory mediators: IL-6; details: according to the dose and even at low concentrations
# From the text: as §1
# IL-1 = assay: Inhibition of upregulation of inflammatory mediators: IL-1; details: according to the dose and even at low concentrations
# From the text: as §1
# [2] = Investigations of the chemical characteristics (stability); type: physicochemical
# From the text: Furthermore, once the inventive compound of formula 1 had been incorporated into inventive cosmetic and pharmaceutical preparations no discoloration of this preparation was detected.
# [3] = test system: TNF-alpha (tumor necrosis factor alpha); assay: Inhibition of upregulation of inflammatory mediators: TNF-alpha; details: according to the dose and even at low concentrations
# From the text: as §1
compound,measurement,setting,value
"COc1cc(CCC(=O)c2ccc(O)cc2)ccc1O [compound of formula 1, 3-(4-hydroxy-3-methoxyphenyl)-1-(4-hydroxyphenyl)-1-propanone]",upregulation of PGE-2 caused by extrinsic and intrinsic factors,PGE-2 (prostaglandin E2),inhibiting the upregulation
same,irritation,[1],did not cause irritation
same,sensitization,[1],not sensitizing
same,upregulation of IL-6 caused by extrinsic and intrinsic factors,IL-6,inhibiting the upregulation
same,upregulation of IL-1 caused by extrinsic and intrinsic factors,IL-1,inhibiting the upregulation
same,photostability,[2],high photostability
same,temperature stability,[2],high temperature stability
same,stability in a broad pH range,[2]; broad pH range,high stability in a broad pH range
same,upregulation of TNF-alpha caused by extrinsic and intrinsic factors,[3],inhibiting the upregulation
